Results: patent US20120302577A1 (AB SCIENCE, priority 2010, published 2012)
Structures can show the parent of a compound that is named as a salt.

How the values were obtained:
patients with GIST = conditions: initial dose 400 mg/day, 345 patients; cited from earlier work
[1] = system: patients with advanced GIST; conditions: cited from earlier work
[2] = system: patients with advanced GIST; conditions: after 2 months of masitinib; cited from earlier work
[3] = system: patients with advanced GIST; test: Phase 2 clinical trial, response rate according to RECIST (CT); type: in vivo, human; conditions: 2 months (N = 30)
Excerpt: Methods; Patients: Patients enrolled in this study were aged over 18 years with inoperable, non-pretreated, histologically proven locally advanced or metastatic, c-Kit positive GIST. […] Exclusion criteria included: inadequate organ function defined via blood tests, severe liver or cardiac failure, and severe neurological or psychiatric disorders. Patients receiving a concomitant treatment within 4 weeks before inclusion, and pregnant or lactating women were also excluded. […] Methods; Statistical analyses: Simon […] two-stage design was used for this prospective, multicenter, single-group, phase II trial. Fourteen patients were initially enrolled, with recruitment of an additional ten patients being dependent on the occurrence of at least one objective RECIST response. This population was further extended to a total of 30 patients to ensure a sufficient evaluable population for all end-points; the type I(α) error was 5% (two-sided) for all analyses. Quantitative variables were described by the number of filled and missing data, mean, standard deviation, median, minimum and maximum. Qualitative variables were described by the number of missing data and, for each modality, frequency and percentage (referring to filled data). Time-to-event data were described using Kaplan-Meier (KM) estimates. The median was provided with its 95% confidence interval (95% CI). […]

[4] = system: imatinib-resistant HMC-1α155 cells; test: Apoptosis assay by Propidium Iodide staining on imatinib-resistant cells; type: cell-based, human; conditions: imatinib-resistant HMC-1α155 cells exposed to 1 μM
Protocol: HMC-1 is a human mast cell line derived from a patient with mast cell leukaemia. The cell line used in this study, HMC-1α155, is a clone derived from the original population expressing endogenous Kit bearing the mutation Val 560 to Gly. […] The medium used in this case was a RPMI medium containing L-glutamine (Cambrex cat#12-702F) supplemented with 100 U/mL penicillin and 100 μg/mL streptomycin (Cambrex 100× penicilline/streptomycine mixture cat #17-602E), and with 10% v/v foetal calf serum (AbCys Lot S02823S1800) which has been previously heat-inactivated 30 minutes at 56° C. (RPMI 10). The medium containing the drugs was replaced with fresh one every 3-4 days. […] The principle behind the method for apoptosis assay by Propidium Iodide Staining (PI staining) is as follows: during apoptosis, DNA breakup causes small fragments of DNA to be free in the nucleus. Following appropriate elution with citrate buffer, these fragments are lost from the nucleus. As these cells now have a lower DNA content, subsequent staining with a DNA binding dye will reveal these cells in the sub-G1 region.

[5] = system: patients with advanced GIST; test: Phase 2 clinical trial, metabolic response (FDG-PET); type: in vivo, human; conditions: At 1 month (N = 13)
Excerpt: (§1) Methods; Patients: Patients enrolled in this study were aged over 18 years with inoperable, non-pretreated, histologically proven locally advanced or metastatic, c-Kit positive GIST. […] Exclusion criteria included: inadequate organ function defined via blood tests, severe liver or cardiac failure, and severe neurological or psychiatric disorders. Patients receiving a concomitant treatment within 4 weeks before inclusion, and pregnant or lactating women were also excluded.

[6] = system: patients with advanced GIST; test: Phase 2 clinical trial, safety assessment (adverse events, NCI CTCAE v3.0); type: in vivo, human; conditions: for Abdominal Pain / Abdominal Pain Upper / Anaemia / Asthenia / Diarrhoea / Dry Skin / Erythema / Eye Oedema / Eyelid Oedema / Lacrimation Increased / Mucosal Inflammation / Muscle Spasms / Myalgia / Nausea / Neutropenia / Oedema Peripheral / Pruritus / Rash / Vomiting: N = 30
Excerpt: as §1, with “excluded. […] All adverse events (AEs), including abnormal serology or haematology, were recorded regardless of causality.” for “excluded.”

[7] = system: patients with advanced GIST; test: Phase 2 clinical trial, time-to-event analysis (PFS, OS); type: in vivo, human
Excerpt: Methods; Patients: Patients enrolled in this study were aged over 18 years with inoperable, non-pretreated, histologically proven locally advanced or metastatic, c-Kit positive GIST. […] Exclusion criteria included: inadequate organ function defined via blood tests, severe liver or cardiac failure, and severe neurological or psychiatric disorders. Patients receiving a concomitant treatment within 4 weeks before inclusion, and pregnant or lactating women were also excluded. […] Time-to-event analyses were calculated from the date of first masitinib intake to the date of event (documented progression or death). Patients who had not progressed at the date of last tumor assessment were censored at that date for PFS. Patients alive at the time of the analysis were censored at the date of last contact for OS. Methods; Statistical analyses: Simon […] two-stage design was used for this prospective, multicenter, single-group, phase II trial. Fourteen patients were initially enrolled, with recruitment of an additional ten patients being dependent on the occurrence of at least one objective RECIST response. This population was further extended to a total of 30 patients to ensure a sufficient evaluable population for all end-points; the type I(α) error was 5% (two-sided) for all analyses. Quantitative variables were described by the number of filled and missing data, mean, standard deviation, median, minimum and maximum. Qualitative variables were described by the number of missing data and, for each modality, frequency and percentage (referring to filled data). Time-to-event data were described using Kaplan-Meier (KM) estimates. The median was provided with its 95% confidence interval (95% CI). PFS rates were given every 6 months with KM estimates. All data analyses and reporting procedures used SAS v9.1 in a Windows XP operating system environment.

Cc1ccc(NC(=O)c2ccc(CN3CCN(C)CC3)cc2)cc1Nc1nccc(-c2cccnc2)n1 [imatinib]
2-year PFS rate (patients with GIST): 46% | 2-year survival (patients with GIST): 72% | 3-year survival (patients with GIST): ~61% | Median PFS (patients with GIST): 18 months | Median overall survival (OS) (patients with GIST): 55 months | 2-year survival rate of patients with advanced GIST ([1]; after introduction of imatinib (pre-imatinib 25%)): about 70% | Patients with early resistance (progression within first 6 months, no response) ([1]; in vivo): 10-15%

Cc1ccc(NC(=O)c2ccc(CN3CCN(C)CC3)cc2)cc1Nc1nc(-c2cccnc2)cs1 [masitinib, 4-(4-methylpiperazin-1-ylmethyl)-N-[4-methyl-3-(4-pyridin-3-ylthiazol-2-ylamino)phenyl]benzamide-mesylate methane sulfonic acid salt]
Patients with tumour response assessed with DCE-US [2]: 75% | Response (RECIST) CR + PR + SD (disease control rate), % [3]: (96.7%) [82.8; 99.9] | Response (RECIST) CR, % ([3]; 7.5 mg/kg/day oral): (0.0%) | % apoptosis (cells in apoptosis with respect to overall cells) [4]: More than 45% | Metabolic response CMR + PMR (metabolic response rate), % [5]: (69.2%) | Metabolic response CMR, % [5]: (0.0%) | Abdominal Pain ([6]; All causalities, All grades): 16 (53.3%) Number (%) of patients | Abdominal Pain Upper ([6]; All causalities, All grades): 9 (30.0%) Number (%) of patients | Anaemia ([6]; All causalities, All grades): 6 (20.0%) Number (%) of patients | Asthenia ([6]; All causalities, All grades): 27 (90.0%) Number (%) of patients | Diarrhoea ([6]; All causalities, All grades): 18 (60.0%) Number (%) of patients | Dry Skin ([6]; All causalities, All grades): 4 (13.3%) Number (%) of patients | Erythema ([6]; All causalities, All grades): 6 (20.0%) Number (%) of patients | Eye Oedema ([6]; All causalities, All grades): 14 (46.7%) Number (%) of patients | Eyelid Oedema ([6]; All causalities, All grades): 7 (23.3%) Number (%) of patients | Lacrimation Increased ([6]; All causalities, All grades): 4 (13.3%) Number (%) of patients | Mucosal Inflammation ([6]; All causalities, All grades): 5 (16.7%) Number (%) of patients | Muscle Spasms ([6]; All causalities, All grades): 12 (40.0%) Number (%) of patients | Myalgia ([6]; All causalities, All grades): 4 (13.3%) Number (%) of patients | Nausea ([6]; All causalities, All grades): 15 (50.0%) Number (%) of patients | Neutropenia ([6]; All causalities, All grades): 5 (16.7%) Number (%) of patients | Oedema Peripheral ([6]; All causalities, All grades): 8 (26.7%) Number (%) of patients | Pruritus ([6]; All causalities, All grades): 11 (36.7%) Number (%) of patients | Rash ([6]; All causalities, All grades): 12 (40.0%) Number (%) of patients | Vomiting ([6]; All causalities, All grades): 10 (33.3%) Number (%) of patients | Abdominal Pain ([6]; All causalities, G3 + G4): 2 (6.7%) Number (%) of patients | Anaemia ([6]; All causalities, G3 + G4): 1 (3.3%) Number (%) of patients | Asthenia ([6]; All causalities, G3 + G4): 1 (3.3%) Number (%) of patients | Diarrhoea ([6]; All causalities, G3 + G4): 1 (3.3%) Number (%) of patients | Eye Oedema ([6]; All causalities, G3 + G4): 1 (3.3%) Number (%) of patients | Mucosal Inflammation ([6]; All causalities, G3 + G4): 1 (3.3%) Number (%) of patients | Neutropenia ([6]; All causalities, G3 + G4): 2 (6.7%) Number (%) of patients | Pruritus ([6]; All causalities, G3 + G4): 1 (3.3%) Number (%) of patients | Rash ([6]; All causalities, G3 + G4): 3 (10.0%) Number (%) of patients | Patients reporting at least one treatment-related AE ([6]; ITT N = 30): All patients | Treatment-related toxicity per patient: abdominal pain ([6]; ITT N = 30): 33% | Treatment-related toxicity per patient: asthenia ([6]; ITT N = 30): 83% | Treatment-related toxicity per patient: cutaneous rash ([6]; ITT N = 30): 40% | Treatment-related toxicity per patient: diarrhoea ([6]; ITT N = 30): 57% | Treatment-related toxicity per patient: eye oedema ([6]; ITT N = 30): 47% | Treatment-related toxicity per patient: muscle spasms ([6]; ITT N = 30): 40% | Treatment-related toxicity per patient: nausea ([6]; ITT N = 30): 47% | Treatment-related toxicity per patient: peripheral oedema ([6]; ITT N = 30): 20% | Treatment-related toxicity per patient: pruritus ([6]; ITT N = 30): 33% | Treatment-related toxicity per patient: upper abdominal pain ([6]; ITT N = 30): 23% | Treatment-related toxicity per patient: vomiting ([6]; ITT N = 30): 23% | Abdominal Pain ([6]; Suspected, All grades): 10 (33.3%) Number (%) of patients | Abdominal Pain Upper ([6]; Suspected, All grades): 7 (23.3%) Number (%) of patients | Anaemia ([6]; Suspected, All grades): 4 (13.3%) Number (%) of patients | Asthenia ([6]; Suspected, All grades): 25 (83.3%) Number (%) of patients | Diarrhoea ([6]; Suspected, All grades): 17 (56.7%) Number (%) of patients | Dry Skin ([6]; Suspected, All grades): 4 (13.3%) Number (%) of patients | Erythema ([6]; Suspected, All grades): 5 (16.7%) Number (%) of patients | Eye Oedema ([6]; Suspected, All grades): 14 (46.7%) Number (%) of patients | Eyelid Oedema ([6]; Suspected, All grades): 7 (23.3%) Number (%) of patients | Lacrimation Increased ([6]; Suspected, All grades): 4 (13.3%) Number (%) of patients | Mucosal Inflammation ([6]; Suspected, All grades): 5 (16.7%) Number (%) of patients | Muscle Spasms ([6]; Suspected, All grades): 12 (40.0%) Number (%) of patients | Myalgia ([6]; Suspected, All grades): 4 (13.3%) Number (%) of patients | Nausea ([6]; Suspected, All grades): 14 (46.7%) Number (%) of patients | Neutropenia ([6]; Suspected, All grades): 5 (16.7%) Number (%) of patients | Oedema Peripheral ([6]; Suspected, All grades): 6 (20.0%) Number (%) of patients | Pruritus ([6]; Suspected, All grades): 10 (33.3%) Number (%) of patients | Rash ([6]; Suspected, All grades): 12 (40.0%) Number (%) of patients | Vomiting ([6]; Suspected, All grades): 7 (23.3%) Number (%) of patients | Abdominal Pain ([6]; Suspected, G3 + G4): 1 (3.3%) Number (%) of patients | Anaemia ([6]; Suspected, G3 + G4): 1 (3.3%) Number (%) of patients | Asthenia ([6]; Suspected, G3 + G4): 1 (3.3%) Number (%) of patients | Diarrhoea ([6]; Suspected, G3 + G4): 1 (3.3%) Number (%) of patients | Eye Oedema ([6]; Suspected, G3 + G4): 1 (3.3%) Number (%) of patients | Mucosal Inflammation ([6]; Suspected, G3 + G4): 1 (3.3%) Number (%) of patients | Neutropenia ([6]; Suspected, G3 + G4): 2 (6.7%) Number (%) of patients | Pruritus ([6]; Suspected, G3 + G4): 1 (3.3%) Number (%) of patients | Rash ([6]; Suspected, G3 + G4): 3 (10.0%) Number (%) of patients | Cardiac side-effects ([6]; to date): no cardiac side-effects have been observed | OS rates (%) [95% CI] ([7]; 12 months): 96.7% | PFS rate (%) [95% CI] ([7]; 24 months): 60% | PFS rate (%) [95% CI] ([7]; 36 months): 55%
